Source: patent US9006487B2, “Amine-containing lipids and uses thereof” (Massachusetts Institute of Technology, priority 2005, dated 2015)
Where “and” joins values, the source holds several entries; their conditions need not be identical. Equal entries are not always repeated.

Experiments:
[1] = DNA delivery: raw luciferase expression (relative light units) of best-transfecting lipids; type: cell-based; conditions: 300 ng of DNA per well
Protocol: Raw values for luciferase expression (relative lights units) of best-transfecting lipids at lipid/DNA (w/w) ratios listed. 300 ng of DNA was added per well.

[2] = test system: cos-7 cells; test: DNA transfection: luciferase expression relative to Lipofectamine 2000; type: cell-based; conditions: for luciferase expression (second part of table, values relative to LIPO2000): 300 ng of DNA per well
Method in brief: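 cos-7 cells were transfected with 300 ng/well luciferase DNA complexed with lipid at ratios from 2.5 to 25 w/w. Bright-Glo luminescence was read after 48 hours and converted to ng luciferase by standard curve. Data are percent of the Lipofectamine 2000 control (2.5 w/w).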

Row | Compound | Raw values for luciferase expression ([1]; lipid/DNA 2.5 w/w) | luciferase expression (second part of table, values relative to LIPO2000) ([2]; lipid/DNA 2.5 w/w) | luciferase expression (second part of table, values relative to LIPO2000) ([2]; lipid/DNA 5 w/w) | luciferase expression (second part of table, values relative to LIPO2000) ([2]; lipid/DNA 10 w/w) | luciferase expression (second part of table, values relative to LIPO2000) ([2]; lipid/DNA 15 w/w) | luciferase expression (second part of table, values relative to LIPO2000) ([2]; lipid/DNA 20 w/w) | luciferase expression (second part of table, values relative to LIPO2000) ([2]; lipid/DNA 25 w/w) | luciferase expression, second set of columns (replicate set of data) ([2]; 1st column, no head printed (2.5 w/w by the raw values)) | luciferase expression, second set of columns (replicate set of data) ([2]; 2nd column, no head printed (5 w/w by the raw values)) | luciferase expression, second set of columns (replicate set of data) ([2]; 3rd column, no head printed (10 w/w by the raw values)) | luciferase expression, second set of columns (replicate set of data) ([2]; 4th column, no head printed (15 w/w by the raw values)) | Raw values for luciferase expression ([1]; lipid/DNA 5 w/w) [relative lights units] | Raw values for luciferase expression ([1]; lipid/DNA 10 w/w) [relative lights units] | Raw values for luciferase expression ([1]; lipid/DNA 15 w/w) [relative lights units]
1 | CCCCCCCCCCCCNC(=O)CCN(CCCO)CCC(=O)NCCCCCCCCCCCC [ND20] | 6868960 relative lights units and 7521540 relative lights units | 278.4 | 278.1 | 0.2 | 0.1 | 0.0 | 0.0 | 84.9 | 5.5 | 0.1 | 0.0 | – | – | –
2 | CCCCCCCCCCCCNC(=O)CCN(CCC(=O)NCCCCCCCCCCCC)CC(C)O (stereo not shown) [ND21] | 1170534 relative lights units | 47.4 | 69.2 | 18.7 | 2.6 | 0.1 | 0.4 | – | – | – | – | 1213862 | – | –
3 | CCCCCCCCCCCCNC(=O)CCN(CCC(=O)NCCCCCCCCCCCC)CC(C)O (stereo not shown) [ND22] | 721270 relative lights units | 29.2 | 61.7 | 48.0 | 4.4 | 0.4 | 0.2 | – | – | – | – | 1083569 | – | –
4 | CCCCCCCCCCCCNC(=O)CCN(CCC(=O)NCCCCCCCCCCCC)CC(O)CO (stereo not shown) [ND24] | 5256861 relative lights units | 157.6 | 30.5 | 2.4 | 0.2 | 0.0 | 0.0 | – | – | – | – | 1231973 | – | –
5 | CCCCCCCCCCCCNC(=O)CCN(CCC(=O)NCCCCCCCCCCCC)C(CO)CO [ND25] | 7548491 relative lights units | 226.4 | 125.8 | 19.5 | 0.5 | 0.0 | 0.0 | – | – | – | – | 5088120 | – | –
6 | CCCCCCCCCCCCNC(=O)CCN(CCOCCO)CCC(=O)NCCCCCCCCCCCC [ND31] | – | 7.7 | 5.6 | 47.6 | 44.9 | 7.6 | 19.7 | – | – | – | – | – | 1154404 | 936815
7 | CCCCCCCCCCCCNC(=O)CCN(CCCCCO)CCC(=O)NCCCCCCCCCCCC [ND32] | 17713202 relative lights units | 531.2 | 67.9 | 1.1 | 0.1 | 0.0 | 0.0 | – | – | – | – | 2745231 | – | –
8 | CCCCCCCCCCCCNC(=O)CCN(CCCCCCO)CCC(=O)NCCCCCCCCCCCC [ND36] | 4517622 relative lights units | 135.5 | 72.8 | 84.3 | 31.6 | 0.8 | 0.0 | – | – | – | – | 2945357 | 2043526 | 658985
9 | CCCCCCCCCCCCNC(=O)CCN(CCC(=O)NCCCCCCCCCCCC)CCc1c[nH]cn1 [ND94] | 774425 relative lights units | – | – | – | – | – | – | – | – | – | – | 1382667 | – | –
10 | CCCCCCCCCCCCNC(=O)CCN(C)CCCN(CCC(=O)NCCCCCCCCCCCC)CCC(=O)NCCCCCCCCCCCC [ND96] | 2910700 relative lights units | – | – | – | – | – | – | – | – | – | – | 42837 | – | –
11 | CCCCCCCCCCCCNC(=O)CCN(CCO)CCN(CCC(=O)NCCCCCCCCCCCC)CCC(=O)NCCCCCCCCCCCC [ND109] | 2197484 relative lights units | – | – | – | – | – | – | – | – | – | – | 2087995 | – | –
12 | CCCCCCCCCCCCCCNC(=O)CCN(CCCOC)CCC(=O)NCCCCCCCCCCCCCC [NF1] | 778473 relative lights units | – | – | – | – | – | – | – | – | – | – | 227587 | – | –
13 | CCCCCCCCCCCCCCNC(=O)CCN(CCOC)CCC(=O)NCCCCCCCCCCCCCC [NF10] | 1192178 relative lights units | – | – | – | – | – | – | – | – | – | – | 838283 | – | –
